Patent publication US6737383B1, “Herbicidal oxadiazolidines” (priority 1999, dated 2004)

Columns and labels:
corn = assay: Test B pre/postemergence corn; assay type: in vivo, Zea mays
How it was run: (§1)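 Response is a visual 0-to-10 score relative to untreated plants, where 0 means no effect and 10 means complete control, taken twelve to sixteen days after application. Treatments went onto soil at planting and onto foliage of 1- to 4-leaf plants, using a surfactant-containing non-phytotoxic solvent.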

wild oat = assay: Test B pre/postemergence wild oat; assay type: in vivo, Avena fatua
How it was run: as §1

crabgrass = assay: Test B pre/postemergence crabgrass; assay type: in vivo, Digitaria sanguinalis
How it was run: as §1

cocklebur = assay: Test B pre/postemergence cocklebur; assay type: in vivo, Xanthium strumarium
How it was run: as §1

surinam grass = assay: Test B pre/postemergence surinam grass; assay type: in vivo, Brachiaria decumbens
How it was run: as §1

bedstraw = assay: Test B pre/postemergence bedstraw; assay type: in vivo, Galium aparine
How it was run: as §1

morningglory = assay: Test B pre/postemergence morningglory; assay type: in vivo, Ipomoea hederacea
How it was run: as §1

purple nutsedge = assay: Test B pre/postemergence purple nutsedge; assay type: in vivo, Cyperus rotundus
How it was run: as §1

velvetleaf = assay: Test B pre/postemergence velvetleaf; assay type: in vivo, Abutilon theophrasti
How it was run: as §1

blackgrass = assay: Test B pre/postemergence blackgrass; assay type: in vivo, Alopecurus myosuroides
How it was run: as §1

soybean = assay: Test B pre/postemergence soybean; assay type: in vivo, Glycine max
How it was run: as §1

rape = assay: Test B pre/postemergence rape; assay type: in vivo, Brassica napus
How it was run: as §1

sugar beet = assay: Test B pre/postemergence sugar beet; assay type: in vivo, Beta vulgaris
How it was run: as §1

giant foxtail = assay: Test B pre/postemergence giant foxtail; assay type: in vivo, Setaria faberii
How it was run: as §1

pigweed = assay: Test B pre/postemergence pigweed; assay type: in vivo, Amaranthus retroflexus
How it was run: as §1

wheat = assay: Test B pre/postemergence wheat; assay type: in vivo, Triticum aestivum
How it was run: as §1

[1] = Postemergence, Rate 62 g/ha, scale 0 to 10, 0 is no effect, 10 is complete control
[2] = Postemergence, Rate 125 g/ha, scale of 0 to 10 where 0 is no effect and 10 is complete control
[3] = Preemergence, Rate 125 g/ha, scale of 0 to 10 where 0 is no effect and 10 is complete control
[4] = Rate 62 g/ha, Preemergence, scale 0 to 10
[5] = Rate 250 g/ha, Postemergence, scale 0 to 10, 0 is no effect, 10 is complete control
[6] = Rate 500 g/ha, Postemergence, scale 0 to 10, 0 is no effect, 10 is complete control
[7] = Rate 500 g/ha, Preemergence, scale 0 to 10 (0 no effect, 10 complete control)
[8] = Preemergence, Rate 250 g/ha, scale 0 (no effect) to 10 (complete control)

`CC(C)N(C(=O)n1oc(=O)n(CCCCl)c1=O)c1ccccc1` [Compound 750] was tested. Which “Plant response rating, Corn” value (corn; [1]) did it give?
Its value is 0.

And the “Corn plant response rating” value (corn; [2])?
The value was 0.

And the “Plant response rating, Corn” value (corn; [3])?
The value was 3.

What about the “Corn plant response rating” value (corn; [4]) of the same compound?
Its value is 0.

What about the “Corn plant response rating” value (corn; [5]) of the same compound?
The value was 0.

And the “Corn plant response rating” value (corn; [6])?
The value was 5.

What about the “Corn plant response rating” value (corn; [7]) of the same compound?
The value was 6.

And the “Plant response rating, Wild oats” value (wild oat; [1])?
Its value is 0.

What about the “Wild oats plant response rating” value (wild oat; [2]) of the same compound?
Its value is 0.

And the “Plant response rating, Wild oats” value (wild oat; [3])?
The value was 5.

What about the “Wild oats plant response rating” value (wild oat; [8]) of the same compound?
Its value is 7.

What about the “Wild oats plant response rating” value (wild oat; [4]) of the same compound?
Its value is 0.

What about the “Wild oats plant response rating” value (wild oat; [5]) of the same compound?
The value was 0.

And the “Wild oats plant response rating” value (wild oat; [6])?
Its value is 0.

What about the “Plant response rating, Crabgrass” value (crabgrass; [1]) of the same compound?
Its value is 7.

What about the “Crabgrass plant response rating” value (crabgrass; [2]) of the same compound?
The value was 9.

And the “Plant response rating, Crabgrass” value (crabgrass; [3])?
Its value is 9.

And the “Crabgrass plant response rating” value (crabgrass; [8])?
Its value is 9.

What about the “Crabgrass plant response rating” value (crabgrass; [4]) of the same compound?
Its value is 9.

And the “Crabgrass plant response rating” value (crabgrass; [5])?
The value was 9.

And the “Crabgrass plant response rating” value (crabgrass; [7])?
The value was 10.

And the “Plant response rating, Cocklebur” value (cocklebur; [1])?
The value was 0.

And the “Cocklebur plant response rating” value (cocklebur; [2])?
Its value is 0.

And the “Plant response rating, Cocklebur” value (cocklebur; [3])?
Its value is 0.

What about the “Cocklebur plant response rating” value (cocklebur; [8]) of the same compound?
The value was 0.

And the “Cocklebur plant response rating” value (cocklebur; [4])?
Its value is 0.

And the “Cocklebur plant response rating” value (cocklebur; [5])?
Its value is 1.

What about the “Cocklebur plant response rating” value (cocklebur; [6]) of the same compound?
Its value is 3.

What about the “Cocklebur plant response rating” value (cocklebur; [7]) of the same compound?
Its value is 0.

And the “Plant response rating, B. signalgrass” value (surinam grass; [1])?
Its value is 0.

What about the “B. signalgrass plant response rating” value (surinam grass; [2]) of the same compound?
Its value is 2.

What about the “B. signalgrass plant response rating” value (surinam grass; Preemergence, Rate 62 g/ha, scale of 0 to 10 where 0 is no effect and 10 is complete control) of the same compound?
The value was 5.

And the “Plant response rating, B. signalgrass” value (surinam grass; [3])?
The value was 10.

What about the “B. signalgrass plant response rating” value (surinam grass; [8]) of the same compound?
Its value is 8.

And the “B. signalgrass plant response rating” value (surinam grass; [5])?
Its value is 6.

And the “B. signalgrass plant response rating” value (surinam grass; [6])?
The value was 6.

What about the “Plant response rating, Bedstraw” value (bedstraw; [1]) of the same compound?
The value was 5.

And the “Plant response rating, Bedstraw” value (bedstraw; [3])?
The value was 0.

And the “Bedstraw plant response rating” value (bedstraw; [8])?
Its value is 0.

And the “Bedstraw plant response rating” value (bedstraw; [4])?
The value was 0.

What about the “Bedstraw plant response rating” value (bedstraw; [5]) of the same compound?
The value was 7.

What about the “Bedstraw plant response rating” value (bedstraw; [6]) of the same compound?
Its value is 10.

What about the “Plant response rating, Morningglory” value (morningglory; [1]) of the same compound?
The value was 3.

What about the “Morningglory plant response rating” value (morningglory; [2]) of the same compound?
Its value is 3.

And the “Plant response rating, Morningglory” value (morningglory; [3])?
Its value is 0.

And the “Morningglory plant response rating” value (morningglory; [8])?
Its value is 6.

And the “Morningglory plant response rating” value (morningglory; [4])?
Its value is 0.

What about the “Morningglory plant response rating” value (morningglory; [5]) of the same compound?
Its value is 8.

What about the “Morningglory plant response rating” value (morningglory; [6]) of the same compound?
The value was 10.

And the “Morningglory plant response rating” value (morningglory; [7])?
The value was 6.

And the “Plant response rating, Nutsedge” value (purple nutsedge; [1])?
Its value is 0.

What about the “Nutsedge plant response rating” value (purple nutsedge; [2]) of the same compound?
The value was 0.

And the “Plant response rating, Nutsedge” value (purple nutsedge; [3])?
Its value is 0.

What about the “Nutsedge plant response rating” value (purple nutsedge; [8]) of the same compound?
Its value is 7.

What about the “Nutsedge plant response rating” value (purple nutsedge; [4]) of the same compound?
The value was 0.

And the “Nutsedge plant response rating” value (purple nutsedge; [5])?
The value was 7.

What about the “Nutsedge plant response rating” value (purple nutsedge; [7]) of the same compound?
The value was 9.

And the “Plant response rating, Velvetleaf” value (velvetleaf; [1])?
The value was 0.

What about the “Velvetleaf plant response rating” value (velvetleaf; [2]) of the same compound?
The value was 3.

What about the “Plant response rating, Velvetleaf” value (velvetleaf; [3]) of the same compound?
Its value is 0.

And the “Velvetleaf plant response rating” value (velvetleaf; [8])?
Its value is 7.

And the “Velvetleaf plant response rating” value (velvetleaf; [4])?
The value was 0.

What about the “Velvetleaf plant response rating” value (velvetleaf; [5]) of the same compound?
Its value is 5.

And the “Velvetleaf plant response rating” value (velvetleaf; [6])?
Its value is 6.

And the “Velvetleaf plant response rating” value (velvetleaf; [7])?
The value was 7.

What about the “Plant response rating, Blackgrass” value (blackgrass; [1]) of the same compound?
The value was 4.

And the “Blackgrass plant response rating” value (blackgrass; [2])?
The value was 7.

And the “Plant response rating, Blackgrass” value (blackgrass; [3])?
The value was 8.

What about the “Blackgrass plant response rating” value (blackgrass; [8]) of the same compound?
The value was 8.

What about the “Blackgrass plant response rating” value (blackgrass; [4]) of the same compound?
The value was 7.

What about the “Blackgrass plant response rating” value (blackgrass; [5]) of the same compound?
Its value is 7.

And the “Blackgrass plant response rating” value (blackgrass; [6])?
The value was 8.

What about the “Plant response rating, Soybean” value (soybean; [1]) of the same compound?
Its value is 2.

What about the “Soybean plant response rating” value (soybean; [2]) of the same compound?
Its value is 6.

And the “Plant response rating, Soybean” value (soybean; [3])?
Its value is 0.

And the “Soybean plant response rating” value (soybean; [8])?
Its value is 5.

And the “Soybean plant response rating” value (soybean; [4])?
The value was 0.

What about the “Soybean plant response rating” value (soybean; [5]) of the same compound?
Its value is 7.

What about the “Soybean plant response rating” value (soybean; [6]) of the same compound?
Its value is 7.

What about the “Soybean plant response rating” value (soybean; [7]) of the same compound?
Its value is 5.

What about the “Plant response rating, Rape” value (rape; [1]) of the same compound?
Its value is 0.

And the “Rape plant response rating” value (rape; [2])?
Its value is 4.

And the “Plant response rating, Rape” value (rape; [3])?
Its value is 0.

What about the “Rape plant response rating” value (rape; [8]) of the same compound?
Its value is 8.

And the “Rape plant response rating” value (rape; [4])?
The value was 0.

What about the “Rape plant response rating” value (rape; [5]) of the same compound?
The value was 6.

And the “Rape plant response rating” value (rape; [6])?
Its value is 7.

What about the “Plant response rating, Sugarbeets” value (sugar beet; [1]) of the same compound?
Its value is 0.

What about the “Sugarbeets plant response rating” value (sugar beet; [2]) of the same compound?
The value was 3.

What about the “Plant response rating, Sugarbeets” value (sugar beet; [3]) of the same compound?
The value was 3.

And the “Sugarbeets plant response rating” value (sugar beet; [8])?
The value was 5.

What about the “Sugarbeets plant response rating” value (sugar beet; [4]) of the same compound?
The value was 1.

What about the “Sugarbeets plant response rating” value (sugar beet; [5]) of the same compound?
Its value is 3.

And the “Sugarbeets plant response rating” value (sugar beet; [6])?
Its value is 6.

And the “Plant response rating, Giant foxtail” value (giant foxtail; [1])?
The value was 9.

And the “Giant foxtail plant response rating” value (giant foxtail; [2])?
Its value is 8.

What about the “Plant response rating, Giant foxtail” value (giant foxtail; [3]) of the same compound?
The value was 10.

What about the “Giant foxtail plant response rating” value (giant foxtail; [8]) of the same compound?
The value was 10.

And the “Giant foxtail plant response rating” value (giant foxtail; [4])?
Its value is 9.

What about the “Giant foxtail plant response rating” value (giant foxtail; [5]) of the same compound?
The value was 8.

And the “Giant foxtail plant response rating” value (giant foxtail; [6])?
Its value is 8.

And the “Giant foxtail plant response rating” value (giant foxtail; [7])?
Its value is 10.

And the “Plant response rating, Redroot pigweed” value (pigweed; [1])?
The value was 4.

And the “Redroot pigweed plant response rating” value (pigweed; [2])?
Its value is 7.

And the “Plant response rating, Redroot pigweed” value (pigweed; [3])?
The value was 9.

What about the “Redroot pigweed plant response rating” value (pigweed; [8]) of the same compound?
The value was 10.

And the “Redroot pigweed plant response rating” value (pigweed; [4])?
The value was 7.

What about the “Redroot pigweed plant response rating” value (pigweed; [5]) of the same compound?
Its value is 7.

And the “Redroot pigweed plant response rating” value (pigweed; [6])?
The value was 7.

What about the “Plant response rating, Wheat” value (wheat; [1]) of the same compound?
Its value is 0.

And the “Wheat plant response rating” value (wheat; [2])?
The value was 0.

And the “Plant response rating, Wheat” value (wheat; [3])?
Its value is 4.

And the “Wheat plant response rating” value (wheat; [8])?
Its value is 5.

What about the “Wheat plant response rating” value (wheat; [4]) of the same compound?
The value was 2.

And the “Wheat plant response rating” value (wheat; [5])?
Its value is 2.

What about the “Wheat plant response rating” value (wheat; [6]) of the same compound?
The value was 2.
